Results published in paper PMC4875962 (Clinical Pharmacokinetics, 2015).

Columns and labels:
Metabolic CYP enzymes = conditions: cited from earlier work
Transporters = conditions: cited from earlier work
[1] = after multiple doses; cited from earlier work
platelet aggregation = conditions: day 2 ratio (90 % CI 68.20–71.62); data on file

SMILES	Metabolic CYP enzymes inhibited (Metabolic CYP enzymes)	Transporters inhibited (Transporters)	other results
C=C[C@H]1C[N@@]2CC[C@H]1C[C@@H]2[C@@H](O)c1ccnc2ccc(OC)cc12 [Quinidine]	Strong 2D6	P-gp; OCT2	–
CCCCc1oc2ccc(NS(C)(=O)=O)cc2c1C(=O)c1ccc(OCCCN(CCCC)CCCC)cc1 [Dronedarone]	Moderate 3A4	P-gp	–
COc1ccc2nc([S@@+]([O-])Cc3ncc(C)c(OC)c3C)[nH]c2c1 [Esomeprazole]	2C9, 2C19 (competitive)	–	gastric pH [1]: approximately 5
COc1ccc2cc([C@H](C)C(=O)O)ccc2c1 [Naproxen]	–	–	baseline-corrected ratio for platelet aggregation (platelet aggregation): 69.89%
CC(=O)N1CCN(c2ccc(OCC3COC(Cn4ccnc4)(c4ccc(Cl)cc4Cl)O3)cc2)CC1 (stereo not shown) [Ketoconazole]	Strong 3A4; weak 2C8, 2C19	P-gp	–
CO[C@H]1/C=C/O[C@@]2(C)Oc3c(C)c(O)c4c(O)c(c(/C=N/N5CCN(C)CC5)c(O)c4c3C2=O)NC(=O)/C(C)=C\C=C\[C@H](C)[C@H](O)[C@@H](C)[C@@H](O)[C@@H](C)[C@H](OC(C)=O)[C@@H]1C [Rifampin]	–	–	Transporters induced (Transporters): P-gp
